Assay results taken from publication PMC2897767, “Two Distinct Mechanisms for Actin Capping Protein Regulation—Steric and Allosteric Inhibition” (PLoS Biology, 2010).
“Also recorded” adds a separate entry of the source. Where no end group is shown, it is not given here.

What was measured:
CP [1] = test: SPR binding of CP to immobilized GST-CD2AP / GST-CARMIL fragments; set-up: species or system chicken; settings: 20°C; for kon / koff: SPR (Biacore), CP perfused, 1:1 binding model; for kon: GST-fusion immobilized via anti-GST antibody on CM5 chip, 50 mM KCl, 1 mM MgCl2, 0.005% Tween-20, 10 mM imidazole pH 7.0; for koff: GST-fusion immobilized
Description: Expression vectors for chicken CPfull and CPΔβC were constructed in pETDuet-1 by PCR, using pET-3d/CP [38] as the template. CP was expressed in E. coli Rosetta2 (DE3) and was purified as described. V-1 (human), expressed in E. coli Rosetta2 (DE3) as a GST-fusion protein, was affinity-purified and the tag was removed. Synthetic peptides derived from CARMIL proteins were obtained from Invitrogen. For crystallization, CP was incubated with a 1.2–2.0-fold molar excess of V-1 or CARMIL peptides at 4°C for 2 h, followed by gel filtration to purify the complexes. Expression vectors for the GST-CA constructs were prepared from the mouse cDNA clone as previously described. Vectors for GST-CD fragments were constructed by PCR cloning using a human whole brain cDNA library (Clontech) as the template. Amplified DNA fragments were cloned into pGEX-6P-1. GST-fusion proteins were expressed in E. coli Rosetta2 (DE3) cells and affinity-purified using glutathione sepharose resin. Mutations were introduced using a Quikchange mutagenesis kit (Stratagene). Actin was prepared from rabbit skeletal muscle, as previously described, and was further purified by gel filtration chromatography. Pyrene labeled-actin was prepared as described. Spectrin-actin seeds were prepared from rabbit red blood cells, as previously described.
(§1) The binding affinities of CP for V-1 or CARMIL proteins were evaluated by surface plasmon resonance measurements with Biacore 3000 or Biacore 2000 instruments (GE Healthcare). GST-fusion proteins (GST-V-1, GST-CA, or GST-CD) were immobilized onto a CM5 sensor chip up to 200 RU (response units; 200 pg/mm^2) via anti-GST antibodies. CP at various concentrations in running buffer (50 mM KCl, 1 mM MgCl2, 0.005% Tween-20, 10 mM imidazole, pH 7.0) was perfused over the chip at 20°C, at a flow rate of 20 µl/min. Response curves were obtained by subtracting the background signal generated simultaneously on a control flow cell with immobilized GST. To measure the effect of the CARMIL peptides on the facilitation of CP/V-1 dissociation (in Figure 11C and 11D), we used the “co-inject” mode for successive injections of the peptides followed by CP. Kinetic parameters were determined by fitting the sensorgrams to a simple 1∶1 binding model, using the Bia-evaluation software (GE Healthcare). KD values were obtained from the kinetic rate constants. […] KD values were evaluated by plotting these values against the concentrations of CP.

CPfull (wild type CP) = test: Actin polymerization assay (barbed end elongation from spectrin-actin seeds): inhibition of CP capping; type: biochemical, chicken; settings: actin 1.2 µM (5% pyrene-labeled); for inhibition of CP capping activity by V-1 proteins: 3 nM wild type CP, various concentrations of V-1, 25°C (Figure S2); for inhibition of barbed end capping by CARMIL peptides: 3.6 nM CPfull, various peptide concentrations, 25°C (Figure 9D)
Description: (A) Superposition of the C-termini of the peptides. CD Phe505 and CK Arg169 are shown as stick models. The conserved proline at the C-terminus of the motifs is shown as balls. (B) CD2AP constructs used for biochemical assays. (C) CARMIL constructs used for biochemical assays. […] Actin (1.2 µM, 5% pyrene-labeled) was polymerized from spectrin-actin seeds in the presence of 3.6 nM CPfull (D), 10 nM CPβΔC (E), or 7.2 nM CPfull (F) with various concentrations of CARMIL peptides or GST-CA constructs.
The barbed end elongation assay from spectrin-actin seeds was performed essentially as previously described. Briefly, G-actin was stored in G-buffer (0.2 mM CaCl2, 0.2 mM ATP, 0.5 mM DTT and 10 mM imidazole, pH 7.0). At 90 s prior to polymerization, the Ca^2+ was replaced with Mg^2+, by the addition of 1/10 volume of 10 mM EGTA and 1 mM MgCl2 to G-actin. […] Actin polymerization was measured by monitoring the pyrene-actin fluorescence (excitation 370 nm; emission 410 nm) at 25°C.
(0.16 MB TIF) Click here for additional data file.

CP [2] = test: SPR competition with immobilized GST-CA92 for CP binding; set-up: species or system chicken; settings: 50 nM wild type CP pre-mixed with various concentrations of peptide (Figure S7)
Description: (§2) GST-fusion proteins (GST-V-1, GST-CA, or GST-CD) were immobilized onto a CM5 sensor chip up to 200 RU (response units; 200 pg/mm^2) via anti-GST antibodies. […] Response curves were obtained by subtracting the background signal generated simultaneously on a control flow cell with immobilized GST. […] Kinetic parameters were determined by fitting the sensorgrams to a simple 1∶1 binding model, using the Bia-evaluation software (GE Healthcare). KD values were obtained from the kinetic rate constants.
(0.25 MB TIF) Click here for additional data file.

[3] = system: CP wt / GST-V-1 interaction; test: SPR assay of the effect of CARMIL peptides on CP/V-1 binding; set-up: species or system chicken CP, human V-1
Description: GST-V-1 was immobilized on a sensor chip.
as §2

CPfull (CP wt) = test: SPR binding of CP to immobilized V-1; set-up: species or system chicken; settings: V-1 mutant immobilized, analyte CP wt, equilibrium KD from Michaelis-Menten plots at saturated binding, not detectable = no binding at highest concentrations tested (≥ 50 µM)
Description: as §1
^a Kinetic parameters were determined by fitting of the sensorgrams to a 1:1 binding model. KD = koff / kon .
^b Kinetic parameters were not determined for mutant proteins, due to the fast dissociation of the complex (koff > 0.1 s^-1). […]

“GST-CD47: GST fusion of human CD2AP residues 461–507 (FDSLTVRTSKETDVVNFDDIASSENLLHLTANRPKMPGRRLPGRFNG; also: GST fusion, end not given here)” gave a kon (CP [1]) of 1.6e+06 M⁻¹ s⁻¹ and a koff (CP [1]; pH 7.0) of 0.029 s⁻¹.

With V-1 W8A: V-1 point mutant Trp8 to Ala the “inhibition of CP capping activity by V-1 proteins” value (“inhibition of CP capping activity” for short) (CPfull (wild type CP)) was “little inhibitory effect; also recorded: minimal effects on CP capping”.

In the case of “GST-CA55: GST fusion of mouse CARMIL residues 962–1016 (FPSVRQEKRSSGLISELPSEEGRRLEHFTKLRPKRNKKQQPTQAAVCTISILPQD; also: GST fusion, end not given here)”, the koff (CP [1]; pH 7.0) is reported as >0.1 s⁻¹ and the “KD (in words)” value (CP [1]; SPR, pH 7.0) is reported as “micromolar range”.

With “CD30: peptide with 7 extra residues at the C-terminus of CD23 (NLLHLTANRPKMPGRRLPGRFNGGHSPTHS; UniProt Q9Y5K6 485-514, looked up, fragment)” the “inhibition of barbed end capping by CARMIL peptides” value (CPfull (wild type CP)) was “higher CP inhibition activity than CD23”.

In the case of “CD23: synthetic peptide, human CD2AP residues 485–507 (CP-binding motif) (NLLHLTANRPKMPGRRLPGRFNG; UniProt Q9Y5K6 485-507, looked up, fragment)”, the “competition with immobilized GST-CA92 for CP binding” value (CP [2]) is reported as “effectively compete”, the “inhibition of barbed end capping by CARMIL peptides” value (CPfull (wild type CP)) is reported as “moderately inhibited” and the “facilitation of dissociation of CP from immobilized GST-V-1” value ([3]; 45 nM CP wt perfused first, then 100 nM peptide, versus buffer control (Figure 11C)) is reported as “CP dissociated from V-1 quite rapidly”. For the same substance, the “inhibition of CP/V-1 complex formation” value ([3]; GST-V-1 immobilized, 100 nM peptide premixed with 45 nM CP wt (Figure 11A)) was “strongly inhibited”.

“GST-CD43: GST fusion of human CD2AP residues 461–503 (FDSLTVRTSKETDVVNFDDIASSENLLHLTANRPKMPGRRLPG; also: GST fusion, end not given here)” was tested, and the koff (CP [1]; pH 7.0) was >0.1 s⁻¹.

For V-1 D44R: V-1 point mutant Asp44 to Arg, the KD (CPfull (CP wt)) was “not detectable ^c” and the “inhibition of CP capping activity” value (CPfull (wild type CP)) was “little inhibitory effect; also recorded: minimal effects on CP capping”.

With V-1 E78R: V-1 point mutant Glu78 to Arg the Kd (CPfull (CP wt)) was 21 µM and the “inhibition of CP capping activity” value (CPfull (wild type CP)) was “little inhibitory effect; also recorded: minimal effects on CP capping”.

In the case of “GST-CD44: GST fusion of human CD2AP residues 461–504 (FDSLTVRTSKETDVVNFDDIASSENLLHLTANRPKMPGRRLPGR; also: GST fusion, end not given here)”, the kon (CP [1]) is reported as 540000 M⁻¹ s⁻¹ and the koff (CP [1]; pH 7.0) is reported as 0.033 s⁻¹.
